Measurements: ChEMBL document CHEMBL2424622, “Development of amino-pyrimidine inhibitors of c-Jun N-terminal kinase (JNK): kinase profiling guided optimization of a 1,2,3-benzotriazole lead” (Bioorg Med Chem Lett, 2013)

Legend:
[1] = biological target: T1, Casein kinase I isoform alpha-like (Homo sapiens) (UniProt Q8N752); assay: Competitive binding affinity to CSNK1A1L (unknown origin) at 10 uM in presence of ATP relative to control
T1 sequence (whole entry): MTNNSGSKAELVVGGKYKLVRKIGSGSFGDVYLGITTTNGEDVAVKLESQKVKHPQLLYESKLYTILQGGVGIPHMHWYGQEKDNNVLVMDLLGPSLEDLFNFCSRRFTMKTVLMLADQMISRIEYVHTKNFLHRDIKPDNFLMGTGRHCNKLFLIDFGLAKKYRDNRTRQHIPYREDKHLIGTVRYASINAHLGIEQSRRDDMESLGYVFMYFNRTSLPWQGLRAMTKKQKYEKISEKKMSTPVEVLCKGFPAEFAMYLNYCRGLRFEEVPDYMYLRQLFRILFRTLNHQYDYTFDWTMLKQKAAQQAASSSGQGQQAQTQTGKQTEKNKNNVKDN

[2] = biological target: Cyclin-dependent kinase 8 (Homo sapiens) (UniProt P49336); assay: Competitive binding affinity to CDK8 (unknown origin) at 10 uM in presence of ATP relative to control
Cyclin-dependent kinase 8 (Homo sapiens), sequence (P49336 whole entry): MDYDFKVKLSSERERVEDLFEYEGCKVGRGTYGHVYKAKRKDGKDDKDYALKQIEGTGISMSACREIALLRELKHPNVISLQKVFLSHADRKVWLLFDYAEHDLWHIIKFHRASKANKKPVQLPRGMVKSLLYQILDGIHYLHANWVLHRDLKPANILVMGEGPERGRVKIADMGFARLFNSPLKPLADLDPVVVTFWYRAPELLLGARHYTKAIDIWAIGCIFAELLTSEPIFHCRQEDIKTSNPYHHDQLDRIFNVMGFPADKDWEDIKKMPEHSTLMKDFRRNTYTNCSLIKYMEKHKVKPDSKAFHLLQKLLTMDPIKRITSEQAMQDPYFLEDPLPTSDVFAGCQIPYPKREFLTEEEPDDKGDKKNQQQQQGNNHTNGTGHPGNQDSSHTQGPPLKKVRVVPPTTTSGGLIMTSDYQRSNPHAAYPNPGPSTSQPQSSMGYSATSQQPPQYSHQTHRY

[3] = biological target: T2, Bone morphogenetic protein receptor type-2 (Homo sapiens) (UniProt Q13873); assay: Competitive binding affinity to BMPR2 (unknown origin) at 10 uM in presence of ATP relative to control
T2 sequence (whole entry): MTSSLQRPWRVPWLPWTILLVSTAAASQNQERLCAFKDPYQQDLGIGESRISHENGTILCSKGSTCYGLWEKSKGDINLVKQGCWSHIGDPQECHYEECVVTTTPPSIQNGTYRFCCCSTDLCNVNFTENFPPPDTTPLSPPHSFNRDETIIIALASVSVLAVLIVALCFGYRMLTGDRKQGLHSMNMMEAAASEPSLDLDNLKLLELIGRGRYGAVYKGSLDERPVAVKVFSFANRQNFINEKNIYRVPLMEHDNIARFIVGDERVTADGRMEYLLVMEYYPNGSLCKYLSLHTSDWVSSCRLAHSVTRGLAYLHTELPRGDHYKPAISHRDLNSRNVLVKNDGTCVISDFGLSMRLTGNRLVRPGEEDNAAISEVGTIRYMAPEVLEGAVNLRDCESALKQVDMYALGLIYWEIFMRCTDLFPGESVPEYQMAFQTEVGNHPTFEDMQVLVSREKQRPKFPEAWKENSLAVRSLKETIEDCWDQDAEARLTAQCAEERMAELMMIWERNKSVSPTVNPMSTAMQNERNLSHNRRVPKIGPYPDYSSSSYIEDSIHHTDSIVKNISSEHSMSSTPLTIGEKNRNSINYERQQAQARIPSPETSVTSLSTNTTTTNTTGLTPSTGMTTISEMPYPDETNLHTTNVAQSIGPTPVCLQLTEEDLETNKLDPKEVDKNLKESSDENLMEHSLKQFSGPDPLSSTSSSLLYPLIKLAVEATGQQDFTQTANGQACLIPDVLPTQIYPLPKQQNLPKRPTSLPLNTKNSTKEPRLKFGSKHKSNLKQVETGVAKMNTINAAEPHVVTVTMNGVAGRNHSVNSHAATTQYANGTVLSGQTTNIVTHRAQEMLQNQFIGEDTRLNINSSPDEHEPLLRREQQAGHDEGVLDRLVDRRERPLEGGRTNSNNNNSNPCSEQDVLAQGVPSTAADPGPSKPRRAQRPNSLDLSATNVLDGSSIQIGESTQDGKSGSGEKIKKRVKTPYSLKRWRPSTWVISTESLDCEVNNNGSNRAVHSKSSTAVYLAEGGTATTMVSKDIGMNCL

[4] = biological target: T3, Testis-specific serine/threonine-protein kinase 1 (Homo sapiens) (UniProt Q9BXA7); assay: Competitive binding affinity to TSSK1 (unknown origin) at 10 uM in presence of ATP relative to control
T3 sequence (whole entry): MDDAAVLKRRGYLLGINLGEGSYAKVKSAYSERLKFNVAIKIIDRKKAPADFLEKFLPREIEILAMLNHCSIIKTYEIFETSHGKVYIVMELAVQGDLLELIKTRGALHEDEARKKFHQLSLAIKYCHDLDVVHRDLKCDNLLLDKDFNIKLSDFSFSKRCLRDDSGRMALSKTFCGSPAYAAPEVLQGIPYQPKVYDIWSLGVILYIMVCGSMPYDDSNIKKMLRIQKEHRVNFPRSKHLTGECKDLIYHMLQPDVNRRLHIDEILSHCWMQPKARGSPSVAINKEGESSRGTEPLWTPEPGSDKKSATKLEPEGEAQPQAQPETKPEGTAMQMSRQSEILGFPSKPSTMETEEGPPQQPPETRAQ

[5] = biological target: T4, Receptor-interacting serine/threonine-protein kinase 1 (Homo sapiens) (UniProt Q13546); assay: Competitive binding affinity to RIPK1 (unknown origin) at 10 uM in presence of ATP relative to control
T4 sequence (whole entry): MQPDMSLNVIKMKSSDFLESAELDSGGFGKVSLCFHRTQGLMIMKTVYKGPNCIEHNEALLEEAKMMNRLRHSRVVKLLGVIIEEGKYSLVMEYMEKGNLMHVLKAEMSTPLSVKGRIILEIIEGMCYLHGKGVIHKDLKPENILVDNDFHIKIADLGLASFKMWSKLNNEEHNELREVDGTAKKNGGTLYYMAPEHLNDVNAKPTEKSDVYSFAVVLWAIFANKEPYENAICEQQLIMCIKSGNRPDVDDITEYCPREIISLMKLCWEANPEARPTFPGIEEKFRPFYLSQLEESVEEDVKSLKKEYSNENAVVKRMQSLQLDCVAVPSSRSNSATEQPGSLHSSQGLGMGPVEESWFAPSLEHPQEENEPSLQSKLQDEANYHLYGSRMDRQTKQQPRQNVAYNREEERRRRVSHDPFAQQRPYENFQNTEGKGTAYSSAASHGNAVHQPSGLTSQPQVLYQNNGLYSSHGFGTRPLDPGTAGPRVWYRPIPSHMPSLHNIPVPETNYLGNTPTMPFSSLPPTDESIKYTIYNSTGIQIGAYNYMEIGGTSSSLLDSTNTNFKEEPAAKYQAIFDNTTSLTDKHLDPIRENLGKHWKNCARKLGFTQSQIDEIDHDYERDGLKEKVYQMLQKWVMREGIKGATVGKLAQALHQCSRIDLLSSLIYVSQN

O[C@H]1CC[C@H](Nc2nccc(-n3ccc4ccccc43)n2)CC1
inhibition [1]: 74%
inhibition [2]: < 50%
inhibition [3]: < 50%
inhibition [4]: < 50%
inhibition [5]: < 50%

O[C@H]1CC[C@H](Nc2nccc(-n3nnc4ccccc43)n2)CC1
inhibition [1]: 100%
inhibition [2]: 82%
inhibition [3]: 85%
inhibition [4]: < 50%
inhibition [5]: < 50%

O[C@H]1CC[C@H](Nc2nccc(-n3ncc4ccccc43)n2)CC1
inhibition [1]: 91%
inhibition [2]: < 50%
inhibition [3]: < 50%
inhibition [4]: < 50%
inhibition [5]: < 50%

O[C@H]1CC[C@H](Nc2nccc(-c3n[nH]c4ccccc34)n2)CC1
inhibition [1]: 100%
